Species: Rattus norvegicus
Test: DrugMatrix - Regimen: Daily Repeat
Type: toxicity, organism-based, Sprague-Dawley
Set-up: regimen Daily Repeat, gender Male, age 6-8 weeks
Conditions: in vivo, po, route oral GAVAGE, vehicle .5 % CMC; for BASOPHIL / EOSINOPHIL / ERYTHROCYTE COUNT / HEMATOCRIT / HEMOGLOBIN / LEUKOCYTE COUNT / LYMPHOCYTE / MEAN CORPUSCULAR HEMOGLOBIN / MEAN CORPUSCULAR HEMOGLOBIN CONCENTRATION / MEAN CORPUSCULAR VOLUME / MONOCYTE / NEUTROPHIL / PLATELET COUNT: tissue Blood; for ALANINE AMINOTRANSFERASE / ALBUMIN / ALKALINE PHOSPHATASE / ASPARTATE AMINOTRANSFERASE / BLOOD UREA NITROGEN / CARBON DIOXIDE / CHLORIDE / CHOLESTEROL / CREATINE PHOSPHOKINASE / CREATININE / GLUCOSE / LACTATE DEHYDROGENASE / LIPASE / PHOSPHORUS / POTASSIUM / SODIUM / TOTAL BILIRUBIN / TOTAL PROTEIN / URIC ACID: tissue Plasma
[1] = 0 mg/kg, 96 h, dose level Control, time 4 day
[2] = 0 mg/kg, […], dose level Control, time 6 day
[3] = 0 mg/kg, […], dose level Control, time 14 day
[4] = 750 mg/kg, 96 h, dose level High, time 4 day
[5] = 750 mg/kg, […], dose level High, time 6 day
[6] = 750 mg/kg, […], dose level High, time 14 day

## Cc1ccc([N+](=O)[O-])cc1 [4-NITROTOLUENE]
[1]
  BASOPHIL: 0.5%
  EOSINOPHIL: 1.85%
  ERYTHROCYTE COUNT: 6.99 x10E6/uL
  HEMATOCRIT: 43.82%
  HEMOGLOBIN: 13.87 G/DL
  LEUKOCYTE COUNT: 12.01 x10E3/uL
  LYMPHOCYTE: 82.07%
  MEAN CORPUSCULAR HEMOGLOBIN: 19.8 pg
  MEAN CORPUSCULAR HEMOGLOBIN CONCENTRATION: 31.63 G/DL
  MEAN CORPUSCULAR VOLUME: 62.7 fL
  MONOCYTE: 2.6%
  NEUTROPHIL: 12.38%
  PLATELET COUNT: 1155 x10E3/uL
  ALANINE AMINOTRANSFERASE: 31.67 u/L
  ALBUMIN: 4.12 G/DL
  ALKALINE PHOSPHATASE: 396 u/L
  ASPARTATE AMINOTRANSFERASE: 75.67 u/L
  BLOOD UREA NITROGEN: 17.5 mg/dL
  CARBON DIOXIDE: 28.83 mmol/L
  CHLORIDE: 103.83 MEQ/L
  CHOLESTEROL: 84.83 mg/dL
  CREATINE PHOSPHOKINASE: 597.17 u/L
  CREATININE: 0.3 mg/dL
  GLUCOSE: 161.5 mg/dL
  LACTATE DEHYDROGENASE: 138.67 u/L
  LIPASE: 11.5 u/L
  PHOSPHORUS: 11.58 mg/dL
  POTASSIUM: 6.87 MEQ/L
  SODIUM: 146.83 MEQ/L
  TOTAL BILIRUBIN: 0.38 mg/dL
  TOTAL PROTEIN: 6.33 G/DL
  URIC ACID: 1.37 mg/dL
[2]
  BASOPHIL: 0.37%
  EOSINOPHIL: 0.38%
  ERYTHROCYTE COUNT: 6.89 x10E6/uL
  HEMATOCRIT: 47.38%
  HEMOGLOBIN: 14.8 G/DL
  LEUKOCYTE COUNT: 13.59 x10E3/uL
  LYMPHOCYTE: 80.27%
  MEAN CORPUSCULAR HEMOGLOBIN: 21.52 pg
  MEAN CORPUSCULAR HEMOGLOBIN CONCENTRATION: 31.22 G/DL
  MEAN CORPUSCULAR VOLUME: 68.83 fL
  MONOCYTE: 2.78%
  NEUTROPHIL: 15.65%
  PLATELET COUNT: 1330.17 x10E3/uL
  ALANINE AMINOTRANSFERASE: 36 u/L
  ALBUMIN: 4.03 G/DL
  ALKALINE PHOSPHATASE: 354.17 u/L
  ASPARTATE AMINOTRANSFERASE: 76.5 u/L
  BLOOD UREA NITROGEN: 19.33 mg/dL
  CARBON DIOXIDE: 27.83 mmol/L
  CHLORIDE: 105.5 MEQ/L
  CHOLESTEROL: 68.83 mg/dL
  CREATINE PHOSPHOKINASE: 383.83 u/L
  CREATININE: 0.35 mg/dL
  GLUCOSE: 165.83 mg/dL
  LACTATE DEHYDROGENASE: 155.17 u/L
  LIPASE: 9.83 u/L
  PHOSPHORUS: 12.4 mg/dL
  POTASSIUM: 6.9 MEQ/L
  SODIUM: 147.33 MEQ/L
  TOTAL BILIRUBIN: 0.52 mg/dL
  TOTAL PROTEIN: 6.42 G/DL
  URIC ACID: 1.6 mg/dL
[3]
  BASOPHIL: 0.38%
  EOSINOPHIL: 0.6%
  ERYTHROCYTE COUNT: 7.78 x10E6/uL
  HEMATOCRIT: 48.3%
  HEMOGLOBIN: 15.42 G/DL
  LEUKOCYTE COUNT: 13.55 x10E3/uL
  LYMPHOCYTE: 81.18%
  MEAN CORPUSCULAR HEMOGLOBIN: 19.8 pg
  MEAN CORPUSCULAR HEMOGLOBIN CONCENTRATION: 31.92 G/DL
  MEAN CORPUSCULAR VOLUME: 62.08 fL
  MONOCYTE: 1.72%
  NEUTROPHIL: 15.17%
  PLATELET COUNT: 1083.83 x10E3/uL
  ALANINE AMINOTRANSFERASE: 36.83 u/L
  ALBUMIN: 4.13 G/DL
  ALKALINE PHOSPHATASE: 328.17 u/L
  ASPARTATE AMINOTRANSFERASE: 74.83 u/L
  BLOOD UREA NITROGEN: 18.67 mg/dL
  CARBON DIOXIDE: 29.33 mmol/L
  CHLORIDE: 105.17 MEQ/L
  CHOLESTEROL: 72 mg/dL
  CREATINE PHOSPHOKINASE: 217.67 u/L
  CREATININE: 0.45 mg/dL
  GLUCOSE: 151.17 mg/dL
  LACTATE DEHYDROGENASE: 133.17 u/L
  LIPASE: 14.5 u/L
  PHOSPHORUS: 11.55 mg/dL
  POTASSIUM: 6.77 MEQ/L
  SODIUM: 149.33 MEQ/L
  TOTAL BILIRUBIN: 0.37 mg/dL
  TOTAL PROTEIN: 6.62 G/DL
  URIC ACID: 1.57 mg/dL
[4]
  BASOPHIL: 0.3%
  EOSINOPHIL: 0.63%
  ERYTHROCYTE COUNT: 6.55 x10E6/uL
  HEMATOCRIT: 41.57%
  HEMOGLOBIN: 12.83 G/DL
  LEUKOCYTE COUNT: 12.7 x10E3/uL
  LYMPHOCYTE: 82.73%
  MEAN CORPUSCULAR HEMOGLOBIN: 19.6 pg
  MEAN CORPUSCULAR HEMOGLOBIN CONCENTRATION: 30.9 G/DL
  MEAN CORPUSCULAR VOLUME: 63.5 fL
  MONOCYTE: 1.93%
  NEUTROPHIL: 13.9%
  PLATELET COUNT: 1261.33 x10E3/uL
  ALANINE AMINOTRANSFERASE: 28.33 u/L
  ALBUMIN: 3.93 G/DL
  ALKALINE PHOSPHATASE: 300 u/L
  ASPARTATE AMINOTRANSFERASE: 82.67 u/L
  BLOOD UREA NITROGEN: 18.67 mg/dL
  CARBON DIOXIDE: 25.33 mmol/L
  CHLORIDE: 106 MEQ/L
  CHOLESTEROL: 90 mg/dL
  CREATINE PHOSPHOKINASE: 852 u/L
  CREATININE: 0.4 mg/dL
  GLUCOSE: 175.33 mg/dL
  LACTATE DEHYDROGENASE: 320.67 u/L
  LIPASE: 11 u/L
  PHOSPHORUS: 12.03 mg/dL
  POTASSIUM: 6.37 MEQ/L
  SODIUM: 147 MEQ/L
  TOTAL BILIRUBIN: 0.4 mg/dL
  TOTAL PROTEIN: 6.07 G/DL
  URIC ACID: 1.5 mg/dL
[5]
  BASOPHIL: 0.2%
  EOSINOPHIL: 0.4%
  ERYTHROCYTE COUNT: 6.89 x10E6/uL
  HEMATOCRIT: 50%
  HEMOGLOBIN: 14.85 G/DL
  LEUKOCYTE COUNT: 11.06 x10E3/uL
  LYMPHOCYTE: 89%
  MEAN CORPUSCULAR HEMOGLOBIN: 21.5 pg
  MEAN CORPUSCULAR HEMOGLOBIN CONCENTRATION: 29.65 G/DL
  MEAN CORPUSCULAR VOLUME: 72.6 fL
  MONOCYTE: 0.95%
  NEUTROPHIL: 9%
  PLATELET COUNT: 1574 x10E3/uL
  ALANINE AMINOTRANSFERASE: 39 u/L
  ALBUMIN: 4.2 G/DL
  ALKALINE PHOSPHATASE: 351.67 u/L
  ASPARTATE AMINOTRANSFERASE: 89 u/L
  BLOOD UREA NITROGEN: 16.67 mg/dL
  CARBON DIOXIDE: 29.33 mmol/L
  CHLORIDE: 106 MEQ/L
  CHOLESTEROL: 68 mg/dL
  CREATINE PHOSPHOKINASE: 701.67 u/L
  CREATININE: 0.6 mg/dL
  GLUCOSE: 151.33 mg/dL
  LACTATE DEHYDROGENASE: 127 u/L
  LIPASE: 10.67 u/L
  PHOSPHORUS: 11.57 mg/dL
  POTASSIUM: 6.27 MEQ/L
  SODIUM: 149.33 MEQ/L
  TOTAL BILIRUBIN: 0.33 mg/dL
  TOTAL PROTEIN: 6.5 G/DL
  URIC ACID: 1.4 mg/dL
[6]
  BASOPHIL: 0.68%
  EOSINOPHIL: 0.52%
  ERYTHROCYTE COUNT: 7.67 x10E6/uL
  HEMATOCRIT: 48.12%
  HEMOGLOBIN: 15.24 G/DL
  LEUKOCYTE COUNT: 10.23 x10E3/uL
  LYMPHOCYTE: 81.12%
  MEAN CORPUSCULAR HEMOGLOBIN: 19.9 pg
  MEAN CORPUSCULAR HEMOGLOBIN CONCENTRATION: 31.7 G/DL
  MEAN CORPUSCULAR VOLUME: 62.76 fL
  MONOCYTE: 2.12%
  NEUTROPHIL: 14.52%
  PLATELET COUNT: 1133.4 x10E3/uL
  ALANINE AMINOTRANSFERASE: 40.6 u/L
  ALBUMIN: 4.04 G/DL
  ALKALINE PHOSPHATASE: 340.4 u/L
  ASPARTATE AMINOTRANSFERASE: 91.2 u/L
  BLOOD UREA NITROGEN: 18.2 mg/dL
  CARBON DIOXIDE: 28.6 mmol/L
  CHLORIDE: 105.6 MEQ/L
  CHOLESTEROL: 66.6 mg/dL
  CREATINE PHOSPHOKINASE: 631.6 u/L
  CREATININE: 0.56 mg/dL
  GLUCOSE: 157.4 mg/dL
  LACTATE DEHYDROGENASE: 226.6 u/L
  LIPASE: 13.6 u/L
  PHOSPHORUS: 12.16 mg/dL
  POTASSIUM: 6.96 MEQ/L
  SODIUM: 149.8 MEQ/L
  TOTAL BILIRUBIN: 0.38 mg/dL
  TOTAL PROTEIN: 6.12 G/DL
  URIC ACID: 1.8 mg/dL
